Tests used:
[1] = tested on: P. falciparum Dd2 (multidrug-resistant); assay: In vitro P. falciparum growth inhibition; format: cell-based; details: Plasmodium falciparum, DD2, 72 h, read-out: EC50 PfDd2
[2] = Cytotoxicity, MTT reduction method, HepG2; format: cell-based; details: human, HepG2 cells
[3] = tested on: P. falciparum 3D7 (chloroquine-sensitive); assay: In vitro P. falciparum growth inhibition; format: cell-based; details: Plasmodium falciparum; for EC50: 3D7, 72 h, read-out: EC50 Pf3D7; for inhibition at 5 µM: 3D7, read-out: inhibition of parasite growth
[4] = Cytotoxicity, MTT reduction method, COS-7; format: cell-based; details: monkey, COS-7 cells
[5] = cited from earlier work
[6] = biological target: PfCDPK1; details: read-out: KD PfCDPK1; cited from earlier work

SMILES | EC50 [1] [µM] | EC50 [3] [µM] | inhibition at 5 µM [3] [%] | further results
O=C1Nc2ccccc2C1=Cc1ccc[nH]1 [(3), 3-(1H-pyrrol-2-ylmethylidene)-1H-indol-2-one] | 9.8 ± 1.1 | 10.3 ± 1.3 | > 30 | CC50 at 72 h [2]: 13.5 ± 7.6 µM; CC50 at 72 h [4]: 32.8 ± 10.8 µM
CS(=O)(=O)c1ccc(-c2cnc(N)c(-c3ccc(C(F)(F)F)nc3)c2)cc1 [MMV390048] |  |  |  | solubility (in words) [5]: poor solubility
COc1ccc(-c2c(C)nn3c(NCCN4CCOCC4)cc(C)nc23)cc1OC [(6), 3-(3,4-dimethoxyphenyl)-2,5-dimethyl-N-(2-morpholin-4-ylethyl)pyrazolo[1,5-a]pyrimidin-7-amine] | 17.9 ± 5.3 | 13.8 ± 3.8 | > 30 | 
Cc1cn(-c2cc(NC(=O)c3ccc(C)c(Nc4nccc(-c5cccnc5)n4)c3)cc(C(F)(F)F)c2)cn1 [Nilotinib] |  |  |  | Kd [6]: 0.79 µM
CCN(CC)CCCC(C)Nc1ccnc2cc(Cl)ccc12 (stereo not drawn) [Chloroquine, reference compound] | 0.057 | 0.009 |  | 
